Patent publication US20080125405A1, “Composition for treating or preventing olfactory disorder” (Samsung Life Public Welfare Foundation Samsung Medical …, priority 2006, published 2008)
Read-outs that look alike come from different tables or passages of the source.

Assays:
olfactory epithelium = experiment: Height (thickness) of olfactory epithelium after 3-methylindole damage, H&E staining; format: in vivo, Sprague-Dawley rats; conditions: rats, 3-methylindole 150 mg/kg i.p., drug 10 mg/kg oral daily; for height of olfactory epithelium: time point not printed (first sampling, fourth day), mean±SD
Protocol: (§1) To collect the olfactory tissues of the test group, the reference group and the control group, the test animals of the three groups were sacrificed on the fourth day, the seventh day, the fourteenth day and the twenty eighth day after the treatment with 3-methylindole. Six test animals were sacrificed each time.
(§2) H&E staining of the tissue obtained from Example 1-2 was performed by treating the paraffin block cut into a thickness of 4 μm via the above trimming and microtomy steps of Example 1-2 with a hematoxylin solution (Zymed, USA) and an eosin solution (eosin Y, Sigma, USA). More particularly, the H&E staining was performed as follows.
(§3) The paraffin block cut into a thickness of 4 μm as described in Example 1-2, i.e. the tissue specimen, was deparaffinized by repeating a xylene treatment cycle (dipping the tissue into 100% xylene twenty times) three times, was subjected to rehydration and staining with a hematoxylin solution for 5 minutes, and then was washed thoroughly with flowing water for 15 minutes. The washed tissue specimen was subjected to differential staining in 0.25% eosin solution for 40 seconds. After the differential staining, the tissue specimen was treated with an increasing amount of alcohol from a lower concentration to a higher concentration (i.e. 50%, 70%, 95% and 100% alcohol) for 1 hour at each concentration to further carry out dehydration. The dehydrated tissue specimen was passed through xylene three times and was encapsulated by covering it with a cover slide.
(§4) To observe damage to or recovery of the olfactory mucous membrane epithelia, the heights and arrangements of the epithelia in the test groups were compared to each other after carrying out H&E staining. To perform the comparison of the heights of the olfactory epithelia, the height of the olfactory epithelium in each test group was measured by taking a photograph of the olfactory mucous membrane at both upper sides of the nasal septum at a magnitude of 200×, wherein the average height of the olfactory mucous membrane epithelium was determined by using an Image J Program (NIH). Also, to perform the comparison of the heights of the olfactory epithelia, columnar arrangement corresponding to the arrangement of the olfactory epithelial cells in each test group was determined.
After measuring the heights of the olfactory epithelia, statistical analysis of the results was performed by using the above mentioned Anova test with Bonferroni's correction.

[1] = test system: olfactory epithelial cells; experiment: Columnar arrangement grade of olfactory epithelial cells after 3-methylindole damage, H&E staining; format: in vivo, Sprague-Dawley rats; conditions: grade 1 (not arranged) to 3 (well arranged), drug 10 mg/kg oral daily
Protocol: as §1, §2, §3, §4
Herein, as the grade number increases, a higher degree of regeneration is made in the olfactory mucous membranes.
Additionally, columnar arrangement of the olfactory epithelial cells in each group was determined. The columnar arrangement of each group is shown in FIG. 3 as a grade evaluated according to the above criteria.

olfactory receptor cells = conditions: grade 0 to 4, higher = more regeneration, drug 10 mg/kg oral daily
Protocol: As test animals, female white Sprague-Dawley rats (Orient Co., Korea) having a body weight of 100-150 g were used. […] The test animals were raised in raising chambers for one week.
The test animals in the test group and the reference group were subjected to intraperitoneal injection of 150 mg/kg (body weight of each test animal) of 3-methylindole (3-MI) so that their olfactory epithelia were damaged. […] To the test animals in the reference group, 10 mg/kg (body weight of each test animal) of a steroid formulation, i.e. prednisolone, dissolved in 1 cc of saline was orally administered according to the same protocol as the test group. Additionally, to the test animals in the control group, the same amount (1 cc) of saline was administered after the olfactory epithelia were damaged, according to the same protocol as the test group.
To observe the distribution of the olfactory receptor cells, immunoreactivity to protein gene product 9.5 (PGP 9.5) known to exist specifically in the olfactory nerve cells was investigated.
The immunohistological staining was performed by using a Histostain-Plus kit (Zymed, San Francisco, USA). The paraffin block cut into a thickness of 4 μm, i.e. the tissue specimen was positioned on a slide coated with poly-L-lysine and was subjected to rehydration by using a decreasing amount of alcohol gradually from 100% alcohol to distilled water. The rehydrated tissue specimen was introduced into heated 10 mM citrate buffer (pH 5.0, Sigma, USA) and was further heated in a microwave oven twice, for 5 minutes each time. Next, the heated tissue specimen was removed from the microwave oven, cooled in the 10 mM citrate buffer for 20 minutes, washed with distilled water, allowed to react with 0.05M Tris-HCl buffer (Tris buffered saline, TBS) containing 3% H2O2 added thereto for 20 minutes to remove the activity of the endogenous peroxidase, and then was washed with 0.05M Tris-HCl buffered saline three times. After removing the activity of the endogenous peroxidase, the washed tissue specimen was treated with 0.1% Triton X-100 (USB, Ohio, USA) for 15 minutes, and further washed with 0.05M Tris-HCl buffered saline three times. After the treatment with 0.1% Triton X-100, the washed tissue specimen was allowed to react with a blocking reagent (10% normal goat serum) for 30 minutes to inhibit non-specific antigen-antibody reactions. […]

[2] = fourteen days after 3-methylindole
[3] = seven days after 3-methylindole
[4] = twenty eight days after 3-methylindole

Row | Structure (SMILES) | thickness of olfactory epithelium (olfactory epithelium; [2]) [μm] | thickness of olfactory epithelium (olfactory epithelium; [3]) [μm] | height of olfactory epithelium (olfactory epithelium) [μm] | thickness of olfactory epithelium (olfactory epithelium; [4]) [μm] | average grade of columnar arrangement of olfactory epithelial cells ([1]; four days after 3-methylindole) | average grade of columnar arrangement of olfactory epithelial cells [1, 2] | average grade of columnar arrangement of olfactory epithelial cells [1, 3] | average grade of columnar arrangement of olfactory epithelial cells [1, 4] | average PGP 9.5 immunostaining grade (olfactory receptor cells; four days after 3-methylindole) | average PGP 9.5 immunostaining grade (olfactory receptor cells; [2]) | average PGP 9.5 immunostaining grade (olfactory receptor cells; [3]) | average PGP 9.5 immunostaining grade (olfactory receptor cells; [4])
1 | CC(C)c1c(C(=O)Nc2ccccc2)c(-c2ccccc2)c(-c2ccc(F)cc2)n1CC[C@@H](O)C[C@@H](O)CC(=O)O [atorvastatin] | 58.6±16.3 | 56.1±26.9 | 17.4±15.1 | 63.9±20.2 | 1.0±0.5 | 1.7±0.7 | 1.7±0.3 | 2.8±0.5 |  |  |  | 
2 | C[C@]12C=CC(=O)C=C1CC[C@@H]1[C@@H]2[C@@H](O)C[C@@]2(C)[C@H]1CC[C@]2(O)C(=O)CO [prednisolone] | 60.5±11.6 | 21.1±13.4 | 9.5±4.7 | 72.2±21.8 | 0.9±0.3 | 1.8±0.5 |  | 2.5±0.4 | 0.5±0.67 | 2.42±1.38 | 0.92±0.79 | 1.75±1.22
